Laboratory results: PubChem BioAssay AID328 (DTP/NCI, 2004)
Values joined by “and” are separate entries in the source; they are usually repeats but may differ in a detail not shown here. Equal entries are not always repeated. Inconclusive results and toxic doses are left out.

System: BDF1 mice, P388 leukemia ip, median survival T/C
Experiment: NCI In Vivo Anticancer Drug Screen. Data for tumor model P388 Leukemia (intraperitoneal) in B6D2F1 (BDF1) mice
Settings: endpoint: median survival time, higher = longer survival
In short: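 Antitumour effect was judged in vivo: survival in drug-treated mice, normalised to that of vehicle-dosed controls, gives the reported T/C.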

[1] = dose: 100.0 mg/kg/injection, schedule: Q04DX003 (ip), vehicle: Klucel (hydroxypropylcellulose) (HPC)
[2] = dose: 200.0 mg/kg/injection, schedule: Q01DX009 (ip), vehicle: Klucel (hydroxypropylcellulose) (HPC)
[3] = dose: 200.0 mg/kg/injection, schedule: Q04DX003 (ip), vehicle: Klucel (hydroxypropylcellulose) (HPC)
[4] = dose: 100.0 mg/kg/injection, schedule: Q01DX009 (ip), vehicle: saline

O=[N+]([O-])c1cccnc1Cl
T/C (dose: 50.0 mg/kg/injection, schedule: Q01DX009 (ip), vehicle: Klucel (hydroxypropylcellulose) (HPC)): 91 % of control
T/C (dose: 100.0 mg/kg/injection, schedule: Q01DX009 (ip), vehicle: Klucel (hydroxypropylcellulose) (HPC)): 100 % of control
T/C [1]: 104 % of control
T/C [2]: 91 % of control
T/C [3]: 100 % of control

COCCOC1=C(N2CC2)C(=O)C(OCCOC)=C(N2CC2)C1=O
T/C (dose: 0.26 mg/kg/injection, schedule: Q01DX009 (ip), vehicle: saline): 99 % of control
T/C (dose: 0.4 mg/kg/injection, schedule: Q01DX009 (ip), vehicle: saline): 108 % of control
T/C (dose: 0.88 mg/kg/injection, schedule: Q01DX009 (ip), vehicle: saline): 163 % of control
T/C (dose: 0.88 mg/kg/injection, schedule: Q04DX003 (ip), vehicle: saline): 121 % of control
T/C (dose: 0.9 mg/kg/injection, schedule: Q01DX009 (ip), vehicle: saline): 108 % of control
T/C (dose: 1.0 mg/kg/injection, schedule: Q01DX009 (ip), vehicle: saline): 171 % of control and 180 % of control
T/C (dose: 1.32 mg/kg/injection, schedule: Q01DX009 (ip), vehicle: saline): 209 % of control
T/C (dose: 1.32 mg/kg/injection, schedule: Q04DX003 (ip), vehicle: saline): 113 % of control
T/C (dose: 2.0 mg/kg/injection, schedule: Q01DX009 (ip), vehicle: saline): 223 % of control and 263 % of control and 220 % of control
T/C (dose: 3.0 mg/kg/injection, schedule: Q01DX009 (ip), vehicle: saline): 231 % of control
T/C (dose: 3.0 mg/kg/injection, schedule: Q04DX003 (ip), vehicle: saline): 152 % of control
T/C (dose: 3.3 mg/kg/injection, schedule: Q04DX003 (ip), vehicle: saline): 186 % of control
T/C (dose: 4.0 mg/kg/injection, schedule: Q01DX009 (ip), vehicle: saline): 109 % of control and 115 % of control
T/C (dose: 5.0 mg/kg/injection, schedule: Q04DX003 (ip), vehicle: saline): 209 % of control
T/C (dose: 6.25 mg/kg/injection, schedule: Q04DX003 (ip), vehicle: saline): 236 % of control
T/C (dose: 7.5 mg/kg/injection, schedule: Q04DX003 (ip), vehicle: saline): 272 % of control
T/C (dose: 12.5 mg/kg/injection, schedule: Q04DX003 (ip), vehicle: saline): 118 % of control

CCCCCCCCC(=O)CCCCC
T/C (dose: 100.0 mg/kg/injection, schedule: Q04DX003 (ip), vehicle: saline): 100 % of control
T/C (dose: 200.0 mg/kg/injection, schedule: Q04DX003 (ip), vehicle: saline): 91 % of control
T/C (dose: 400.0 mg/kg/injection, schedule: Q04DX003 (ip), vehicle: saline): 95 % of control

N=C(N)N.O=S(=O)(O)[O][Al]1[O]S(=O)(=O)[O]1
T/C (dose: 25.0 mg/kg/injection, schedule: Q01DX009 (ip), vehicle: saline): 87 % of control
T/C (dose: 50.0 mg/kg/injection, schedule: Q01DX009 (ip), vehicle: saline): 100 % of control
T/C [4]: 95 % of control

COc1ccc2c(c1)CCC1C2CCC2(C)/C(=N/O)C(Cl)C(O)C12 (configuration not stated)
T/C (dose: 6.25 mg/kg/injection, schedule: Q01DX001 (ip), vehicle: saline with Tween-80): 100 % of control
T/C (dose: 12.5 mg/kg/injection, schedule: Q01DX001 (ip), vehicle: saline with Tween-80): 109 % of control
T/C (dose: 25.0 mg/kg/injection, schedule: Q01DX001 (ip), vehicle: saline with Tween-80): 97 % of control

O=c1[nH]cnc2c1ncn2C1OC(CF)C(O)C1O (configuration not stated)
T/C (dose: 100.0 mg/kg/injection, schedule: Q01DX001 (ip), vehicle: saline): 108 % of control
T/C [4]: 86 % of control
T/C (dose: 200.0 mg/kg/injection, schedule: Q01DX001 (ip), vehicle: saline): 108 % of control
T/C (dose: 200.0 mg/kg/injection, schedule: Q01DX009 (ip), vehicle: saline): 91 % of control
T/C (dose: 400.0 mg/kg/injection, schedule: Q01DX001 (ip), vehicle: saline): 108 % of control
T/C (dose: 400.0 mg/kg/injection, schedule: Q01DX009 (ip), vehicle: saline): 86 % of control

COc1cc(/C=N/NC(=O)c2ccncc2)cc(OC)c1OC
T/C [1]: 104 % of control
T/C [2]: 122 % of control
T/C [3]: 109 % of control
T/C (dose: 400.0 mg/kg/injection, schedule: Q01DX009 (ip), vehicle: Klucel (hydroxypropylcellulose) (HPC)): 122 % of control
T/C (dose: 400.0 mg/kg/injection, schedule: Q04DX003 (ip), vehicle: Klucel (hydroxypropylcellulose) (HPC)): 100 % of control
